The text below walks through data of PubChem BioAssay (NCI).

Each structure is given as a SMILES string. Where “and” joins values, the source holds several entries; their conditions need not be identical. Equal entries are not always repeated.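 Assay format: 96-well plates, 48-hour exposure. At the GI50, growth is halved. TGI denotes the concentration required for complete inhibition of growth.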 Some results are limits rather than exact numbers.

Test systems include NCI-H23 lung; NCI-H522 lung; DU-145 prostate; MALME-3M melanoma; SNB-75 CNS; SK-OV-3 ovarian; SK-MEL-28 melanoma; UACC-257 melanoma; LOX IMVI melanoma.
Common to all, as to assay: inhibition of tumour cell growth, NCI panel, 48 h

Take `N#Cc1sc2c(c1OC(=O)c1ccco1)c(=O)n(-c1ccccc1)c(=S)n2-c1ccccc1`: the TGI in the test on NCI-H23 lung is above 100 µM; in the test on NCI-H522 lung it was 64.4 µM; in the test with DU-145 prostate, above 100 µM; in the test with MALME-3M melanoma, 58.2 µM; in the test on SNB-75 CNS, 84.5 µM; in the test on SK-OV-3 ovarian, above 100 µM. Also, the TGI in the test on SK-MEL-28 melanoma is above 100 µM; with UACC-257 melanoma, above 100 µM; in the test with LOX IMVI melanoma it was 45.6 µM.

In the case of `CCn1c(CCCc2nc3c([nH]2)c(=O)n(C)c(=O)n3C)nc2c1c(=O)n(C)c(=O)n2C`, the TGI in the test with NCI-H23 lung, in the test with NCI-H522 lung, in the test on DU-145 prostate, in the test with MALME-3M melanoma, in the test with SK-OV-3 ovarian and with SK-MEL-28 melanoma was above 100 µM each time. The TGI in the test with UACC-257 melanoma and with LOX IMVI melanoma was above 100 µM each time.

For the molecule `N#Cc1ccc(-c2ccc(Cl)cc2)n(C2OC(CO)C(O)C(O)C2O)c1=S` (centres undefined), the GI50 is > 100 µM and 31.8 µM with NCI-H23 lung; > 100 µM and 15.5 µM in the test on NCI-H522 lung; 43.1 µM and 19.8 µM with SNB-75 CNS. For the same molecule, the TGI in the test on NCI-H23 lung, with NCI-H522 lung, in the test on DU-145 prostate, in the test with MALME-3M melanoma, with SNB-75 CNS and in the test on SK-MEL-28 melanoma was above 100 µM in each case. Also, the TGI in the test with UACC-257 melanoma and in the test on LOX IMVI melanoma was above 100 µM in each case.

In the case of `N#CCCN(CCCCN(CCC#N)C(=O)Nc1ccccc1)C(=O)Nc1ccccc1`, the TGI in the test with NCI-H23 lung, with NCI-H522 lung, in the test with DU-145 prostate, in the test on MALME-3M melanoma, in the test on SNB-75 CNS and in the test on SK-OV-3 ovarian was above 100 µM in each case. For the same molecule, the TGI with SK-MEL-28 melanoma and in the test with LOX IMVI melanoma was above 100 µM throughout.

For `CCOc1ccccc1N=NC1C(=O)N(C(=O)CC(=O)Nc2ccccc2C)N=C1C` (centres undefined), the TGI in the test on NCI-H23 lung is above 100 µM; in the test with NCI-H522 lung it was above 100 µM; in the test with DU-145 prostate it was above 100 µM; in the test with MALME-3M melanoma, above 100 µM; in the test on SNB-75 CNS, 54.6 µM; in the test with SK-OV-3 ovarian it was 56.1 µM. Also, the TGI in the test on SK-MEL-28 melanoma and in the test with LOX IMVI melanoma was above 100 µM in each case.

On to `CC1(C)CC(=O)c2c(N)n[nH]c2C1`, for which the TGI in the test on NCI-H23 lung, in the test on NCI-H522 lung, with DU-145 prostate, with MALME-3M melanoma, with SNB-75 CNS and in the test with SK-MEL-28 melanoma was above 100 µM throughout. In addition, the TGI with UACC-257 melanoma and in the test with LOX IMVI melanoma was above 100 µM each time.

`Cc1cn(C2CC(O)C(Cn3nncc3Cn3nc(Br)c(=O)[nH]c3=O)O2)c(=O)[nH]c1=O` (centres undefined): the TGI in the test on NCI-H23 lung, in the test with NCI-H522 lung, with DU-145 prostate, in the test on MALME-3M melanoma, in the test on SK-OV-3 ovarian and with SK-MEL-28 melanoma was above 100 µM each time. The TGI with UACC-257 melanoma and in the test on LOX IMVI melanoma was above 100 µM in each case.

For `CCCCCCCCCCCC(=O)N(CCCCCCCCC)CC(O)C(O)C(OC1OC(CO)C(O)C(O)C1O)C(O)CO` (centres undefined), the TGI is 35.3 µM in the test with NCI-H23 lung; 44.1 µM with NCI-H522 lung; 33.8 µM in the test on DU-145 prostate; 37.7 µM in the test with MALME-3M melanoma; 34.3 µM with SNB-75 CNS; 35.2 µM in the test with SK-MEL-28 melanoma. The TGI with UACC-257 melanoma was 31.4 µM; with LOX IMVI melanoma, 40.2 µM.

For `COc1ccc(NC(=O)CSC(=O)c2ccccc2)c(SCCSSCCSc2cc(OC)ccc2NC(=O)CSC(=O)c2ccccc2)c1`, the TGI in the test on NCI-H23 lung, in the test on NCI-H522 lung, with DU-145 prostate, in the test with MALME-3M melanoma, with SNB-75 CNS and in the test with SK-OV-3 ovarian was above 100 µM throughout. Also, the TGI in the test with UACC-257 melanoma and with LOX IMVI melanoma was above 100 µM in each case.

On to `Oc1ccc(-c2nc3cc(C(F)(F)F)ccc3s2)cc1`, for which the TGI in the test with NCI-H23 lung turned out to be 30.5 µM; with NCI-H522 lung, 25.7 µM; with DU-145 prostate, 30 µM; with MALME-3M melanoma, 26.6 µM; in the test on SK-OV-3 ovarian it was 40.7 µM; in the test on UACC-257 melanoma, 32.2 µM. In the test on LOX IMVI melanoma, this molecule gave a TGI of 26.6 µM.

For `CCOC(=O)c1nc2ccccc2nc1Nc1ccc(C(=O)OC)s1`, the TGI with NCI-H23 lung, in the test on NCI-H522 lung, in the test with DU-145 prostate, in the test on MALME-3M melanoma, in the test on SNB-75 CNS and in the test with SK-MEL-28 melanoma was above 100 µM each time. Moreover, the TGI in the test with UACC-257 melanoma and in the test on LOX IMVI melanoma was above 100 µM each time.

Turning to `COC(=O)/C=C1\C(CO[Si](C)(C)C(C)(C)C)OC(n2cc(C)c(=O)n(C)c2=O)C1O[Si](C)(C)C(C)(C)C` (centres undefined), the TGI with NCI-H23 lung, in the test on NCI-H522 lung, in the test with DU-145 prostate, in the test with MALME-3M melanoma, in the test on SNB-75 CNS and in the test on SK-OV-3 ovarian was above 100 µM in each case. Further, the TGI with SK-MEL-28 melanoma and in the test with LOX IMVI melanoma was above 100 µM throughout.
